Patent US10301320B2, “Compositions and methods of modulating 15-PGDH activity” (CASE WESTERN RESERVE UNIVERSITY, priority 2012, dated 2019)

system: V9m reporter cell line expressing a 15-PGDH luciferase fusion construct; assay: 15-PGDH-luciferase fusion gene reporter induction, V9m cell line; assay type: cell-based; details: read-out: V9M reporter activity ([…]), Table 17; […]; % induction over basal level; read-out: V9M reporter activity (2.5 μM)
Description: (§1) These cell lines are Vaco-9m (V9m), LS174T, Vaco503 (V503). […] Value of 1.0 on the Y-axis is the basal level of reporter activity in cells treated with drug free DMSO vehicle.
(§2) This Example provides data on a group of structural analogues of SW033291. Data provided includes level of induction of a 15-PGDH-luciferase fusion gene reporter, recorded as % increased luciferase activity over basal level, in three colon cancer cell lines, V9m, V503, and LS174T, engineered to contain the reporter, and treated with either 2.5 uM or 7.5 uM compound (i.e., Values are recorded on a scale where 100 indicates of doubling of luciferase activity over baseline level).
(§3) FIGS. 27(A-C) show graphs that show the level of compound's activity in inducing the 15-PGDH-luciferase fusion reporter in three different test cell line backgrounds, V9m, LS174T, and V503. Each compound was tested at two concentrations, 2.5 uM, and 7.5 uM. Y-axis is luciferase activity.
(§4) Data provided include level of induction of a 15-PGDH-luciferase fusion gene reporter, recorded as % induction of luciferase activity over basal level, in three colon cancer cell lines, V9m, V503, and LS174T, engineered to contain the reporter, and treated with either 2.5 uM or 7.5 uM compound. […] Additionally, for selected compounds is recorded the decrease in PGE2 levels in the media of compound treated A549 cells that have been stimulated with IL-1 beta. Additionally recorded for selected compounds is the effect on A549 cell viability as measured by a CellTiter-Glo assay, and the effect of compounds on A549 cell colony formation.

SMILES | activation at […]
COc1ccc(S(=O)(=O)N(CC(=O)Nc2cccc(N(C)S(C)(=O)=O)c2)c2cc(Cl)ccc2OC)cc1OC [compound 924787] | -1.45%
COc1ccc(S(=O)(=O)N(CC(=O)Nc2cccc(Br)c2)c2cc(Cl)ccc2OC)cc1OC [compound 771130] | 8.67%
COc1ccc(S(=O)(=O)N(CC(=O)Nc2ccccc2Br)c2cc(Cl)ccc2OC)cc1OC [compound 771081] | -14.2%
COc1ccc(N(CC(=O)Nc2ccccc2Br)S(=O)(=O)c2ccc(NC(C)=O)cc2)cc1 [compound 771064] | 43.3%

same assay, conditions: read-out: V9M reporter activity ([…]), Table 17; […]; read-out: V9M reporter activity (7.5 μM)

SMILES | activation at […]
COc1ccc(S(=O)(=O)N(CC(=O)Nc2cccc(N(C)S(C)(=O)=O)c2)c2cc(Cl)ccc2OC)cc1OC [compound 924787] | 18.1%
COc1ccc(S(=O)(=O)N(CC(=O)Nc2cccc(Br)c2)c2cc(Cl)ccc2OC)cc1OC [compound 771130] | 5.84%
COc1ccc(S(=O)(=O)N(CC(=O)Nc2ccccc2Br)c2cc(Cl)ccc2OC)cc1OC [compound 771081] | 7.58%
COc1ccc(N(CC(=O)Nc2ccccc2Br)S(=O)(=O)c2ccc(NC(C)=O)cc2)cc1 [compound 771064] | -19.2%

same assay, conditions: read-out: V9M reporter activity ([…]), […]; % increased luciferase activity over basal level, 100 = doubling; read-out: V9M reporter activity (2.5 uM)

SMILES | activation at […]
CCCC[S+]([O-])c1ncccc1[N+](=O)[O-] (centres unmarked) [SW208069, 2-(butylsulfinyl)-3-nitropyridine] | -14.5%
Nc1c(C(=O)O)sc2nc(-c3cccs3)cc(-c3ccccc3)c12 [SW206979, 3-Amino-4-phenyl-6-(thiophen-2-yl)thieno[2,3-b]pyridine-2-carboxylic acid] | -12.6%

same assay, conditions: read-out: V9M reporter activity ([…]), […]; % increased luciferase activity over basal level; read-out: V9M reporter activity (7.5 uM)

SMILES | activation at […]
CCCC[S+]([O-])c1ncccc1[N+](=O)[O-] (centres unmarked) [SW208069, 2-(butylsulfinyl)-3-nitropyridine] | 0.23%
Nc1c(C(=O)O)sc2nc(-c3cccs3)cc(-c3ccccc3)c12 [SW206979, 3-Amino-4-phenyl-6-(thiophen-2-yl)thieno[2,3-b]pyridine-2-carboxylic acid] | -20.6%

same assay, conditions: read-out: V9M-SC3 Reporter activity % ([…]), Table 18; […]; read-out: V9M-SC3 Reporter activity % (7.5 μM)

SMILES | percent reporter induction over basal at […]
COc1ccc(N(CC(=O)Nc2cccnc2)S(=O)(=O)c2ccccc2)cc1C [592469-85-7] | 18.5%
COc1ccc(C)cc1N(CC(=O)Nc1cccnc1)S(=O)(=O)c1ccccc1 [526206-05-3] | 114%
COc1ccc(OC)c(N(CC(=O)Nc2ccc(Cl)cc2)S(=O)(=O)c2ccccc2)c1 [339589-53-6] | 4.25%

same assay, conditions: read-out: V9M-SC3 Reporter activity ([…]) (%), Table 18; […]; read-out: V9M-SC3 Reporter activity (2.5 μM) (%)

SMILES | activation at […]
COc1ccc(N(CC(=O)Nc2cccnc2)S(=O)(=O)c2ccccc2)cc1C [592469-85-7] | -9.74%
COc1ccc(C)cc1N(CC(=O)Nc1cccnc1)S(=O)(=O)c1ccccc1 [526206-05-3] | 23.1%

biological target: recombinant 15-PGDH protein (Homo sapiens (Human), UniProt P15428); assay: Inhibition of enzymatic activity of recombinant 15-PGDH in vitro; assay type: biochemical; details: read-out: Enzyme inhibition % ([…]), Table 18; […] compound; read-out: Enzyme inhibition % (2.5 μM);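 further: activity of recombinant human 15-PGDH assayed in vitro using PGE2 as the substrate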
Sequence (P15428 whole entry): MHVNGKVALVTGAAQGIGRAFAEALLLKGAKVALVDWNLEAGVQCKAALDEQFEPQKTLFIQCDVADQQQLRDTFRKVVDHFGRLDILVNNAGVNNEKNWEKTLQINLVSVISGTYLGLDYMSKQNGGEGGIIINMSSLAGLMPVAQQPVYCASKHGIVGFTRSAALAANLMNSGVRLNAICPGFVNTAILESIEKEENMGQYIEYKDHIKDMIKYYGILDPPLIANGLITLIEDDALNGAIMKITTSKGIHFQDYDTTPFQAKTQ

SMILES | inhibition at […]
COc1ccc(N(CC(=O)Nc2cccnc2)S(=O)(=O)c2ccccc2)cc1C [592469-85-7] | 6.23%
COc1ccc(OC)c(N(CC(=O)Nc2cccc(Cl)c2)S(=O)(=O)c2ccccc2)c1 [311315-25-0] | 18.7%
COc1ccc(C)cc1N(CC(=O)Nc1cccnc1)S(=O)(=O)c1ccccc1 [526206-05-3] | 42%
COc1ccc(OC)c(N(CC(=O)Nc2ccc(Cl)cc2)S(=O)(=O)c2ccccc2)c1 [339589-53-6] | 35.5%

same assay, conditions: read-out: Enzyme inhibition % ([…]), Table 18; […] compound; read-out: Enzyme inhibition % (7.5 μM)

SMILES | inhibition at […]
COc1ccc(N(CC(=O)Nc2cccnc2)S(=O)(=O)c2ccccc2)cc1C [592469-85-7] | 17.2%
COc1ccc(OC)c(N(CC(=O)Nc2cccc(Cl)c2)S(=O)(=O)c2ccccc2)c1 [311315-25-0] | 34.7%
COc1ccc(C)cc1N(CC(=O)Nc1cccnc1)S(=O)(=O)c1ccccc1 [526206-05-3] | 70.2%
COc1ccc(OC)c(N(CC(=O)Nc2ccc(Cl)cc2)S(=O)(=O)c2ccccc2)c1 [339589-53-6] | 37.4%

system: LS174T reporter cell line expressing a 15-PGDH luciferase fusion construct; assay: 15-PGDH-luciferase fusion gene reporter induction, LS174T cell line; assay type: cell-based; details: Homo sapiens, read-out: 1S174T reporter activity ([…]), Table 17, […], read-out: 1S174T reporter activity (7.5 μM)
Description: as §1, §2, §3, §4

SMILES | activation at […]
COc1ccc(S(=O)(=O)N(CC(=O)Nc2cccc(N(C)S(C)(=O)=O)c2)c2cc(Cl)ccc2OC)cc1OC [compound 924787] | 13.1%
COc1ccc(S(=O)(=O)N(CC(=O)Nc2cccc(Br)c2)c2cc(Cl)ccc2OC)cc1OC [compound 771130] | -0.48%
COc1ccc(S(=O)(=O)N(CC(=O)Nc2ccccc2Br)c2cc(Cl)ccc2OC)cc1OC [compound 771081] | 15.4%
COc1ccc(N(CC(=O)Nc2ccccc2Br)S(=O)(=O)c2ccc(NC(C)=O)cc2)cc1 [compound 771064] | -29.6%

same assay, conditions: Homo sapiens, read-out: LS174T reporter activity ([…]), Table 17, […], read-out: LS174T reporter activity (2.5 μM)

SMILES | activation at […]
COc1ccc(S(=O)(=O)N(CC(=O)Nc2cccc(N(C)S(C)(=O)=O)c2)c2cc(Cl)ccc2OC)cc1OC [compound 924787] | 4.32%
COc1ccc(S(=O)(=O)N(CC(=O)Nc2cccc(Br)c2)c2cc(Cl)ccc2OC)cc1OC [compound 771130] | 8.66%
COc1ccc(S(=O)(=O)N(CC(=O)Nc2ccccc2Br)c2cc(Cl)ccc2OC)cc1OC [compound 771081] | 5.74%
COc1ccc(N(CC(=O)Nc2ccccc2Br)S(=O)(=O)c2ccc(NC(C)=O)cc2)cc1 [compound 771064] | -2.11%

same assay, conditions: Homo sapiens, read-out: LS174T reporter activity ([…]), […], % increased luciferase activity over basal level, read-out: LS174T reporter activity (2.5 uM)

SMILES | activation at […]
CCCC[S+]([O-])c1ncccc1[N+](=O)[O-] (centres unmarked) [SW208069, 2-(butylsulfinyl)-3-nitropyridine] | 19.5%
Nc1c(C(=O)O)sc2nc(-c3cccs3)cc(-c3ccccc3)c12 [SW206979, 3-Amino-4-phenyl-6-(thiophen-2-yl)thieno[2,3-b]pyridine-2-carboxylic acid] | 34.3%

same assay, conditions: Homo sapiens, read-out: LS174T reporter activity ([…]), […], % increased luciferase activity over basal level, read-out: LS174T reporter activity (7.5 uM)

SMILES | activation at […]
CCCC[S+]([O-])c1ncccc1[N+](=O)[O-] (centres unmarked) [SW208069, 2-(butylsulfinyl)-3-nitropyridine] | 15.1%
Nc1c(C(=O)O)sc2nc(-c3cccs3)cc(-c3ccccc3)c12 [SW206979, 3-Amino-4-phenyl-6-(thiophen-2-yl)thieno[2,3-b]pyridine-2-carboxylic acid] | 32.8%

same assay, conditions: Homo sapiens, read-out: Ls174T-SC1 reporter activity, % ([…]), Table 18, […], read-out: Ls174T-SC1 reporter activity, % (2.5μM)

SMILES | activation at […]
COc1ccc(N(CC(=O)Nc2cccnc2)S(=O)(=O)c2ccccc2)cc1C [592469-85-7] | 3.77%
COc1ccc(OC)c(N(CC(=O)Nc2cccc(Cl)c2)S(=O)(=O)c2ccccc2)c1 [311315-25-0] | 62.6%
COc1ccc(C)cc1N(CC(=O)Nc1cccnc1)S(=O)(=O)c1ccccc1 [526206-05-3] | 68.5%

same assay, conditions: Homo sapiens, read-out: Ls174T-SC1 reporter activity, % ([…]), Table 18, […], read-out: Ls174T-SC1 reporter activity, % (7.5 μM)

SMILES | activation at […]
COc1ccc(N(CC(=O)Nc2cccnc2)S(=O)(=O)c2ccccc2)cc1C [592469-85-7] | 14%
COc1ccc(OC)c(N(CC(=O)Nc2cccc(Cl)c2)S(=O)(=O)c2ccccc2)c1 [311315-25-0] | 75.8%
COc1ccc(C)cc1N(CC(=O)Nc1cccnc1)S(=O)(=O)c1ccccc1 [526206-05-3] | 146%

system: Vaco503 reporter cell line expressing a 15-PGDH luciferase fusion construct; assay: 15-PGDH-luciferase fusion gene reporter induction, Vaco503 (V503) cell line; assay type: cell-based; details: read-out: V503-3H9-7 reporter activity, % ([…]), Table 18; […]; read-out: V503-3H9-7 reporter activity, % (2.5 μM)
Description: as §1, §2, §3, §4

SMILES | activation at […]
COc1ccc(N(CC(=O)Nc2cccnc2)S(=O)(=O)c2ccccc2)cc1C [592469-85-7] | 10.2%
COc1ccc(C)cc1N(CC(=O)Nc1cccnc1)S(=O)(=O)c1ccccc1 [526206-05-3] | 110%

same assay, conditions: read-out: V503-3H9-7 reporter activity, % ([…]), Table 18; […]; read-out: V503-3H9-7 reporter activity, % (7.5 μM)

SMILES | activation at […]
COc1ccc(N(CC(=O)Nc2cccnc2)S(=O)(=O)c2ccccc2)cc1C [592469-85-7] | 5.3%
COc1ccc(C)cc1N(CC(=O)Nc1cccnc1)S(=O)(=O)c1ccccc1 [526206-05-3] | 198%

same assay, conditions: read-out: V503 reporter activity ([…]), Table 17; […]; read-out: V503 reporter activity (2.5 μM)

SMILES | activation at […]
COc1ccc(S(=O)(=O)N(CC(=O)Nc2cccc(N(C)S(C)(=O)=O)c2)c2cc(Cl)ccc2OC)cc1OC [compound 924787] | 21.9%
COc1ccc(S(=O)(=O)N(CC(=O)Nc2cccc(Br)c2)c2cc(Cl)ccc2OC)cc1OC [compound 771130] | -10.2%
COc1ccc(S(=O)(=O)N(CC(=O)Nc2ccccc2Br)c2cc(Cl)ccc2OC)cc1OC [compound 771081] | 31.9%
COc1ccc(N(CC(=O)Nc2ccccc2Br)S(=O)(=O)c2ccc(NC(C)=O)cc2)cc1 [compound 771064] | -13.8%

same assay, conditions: read-out: V503 reporter activity ([…]), Table 17; […]; read-out: V503 reporter activity (7.5 μM)

SMILES | activation at […]
COc1ccc(S(=O)(=O)N(CC(=O)Nc2cccc(N(C)S(C)(=O)=O)c2)c2cc(Cl)ccc2OC)cc1OC [compound 924787] | 48%
COc1ccc(S(=O)(=O)N(CC(=O)Nc2cccc(Br)c2)c2cc(Cl)ccc2OC)cc1OC [compound 771130] | -3.48%
COc1ccc(S(=O)(=O)N(CC(=O)Nc2ccccc2Br)c2cc(Cl)ccc2OC)cc1OC [compound 771081] | 51.7%
COc1ccc(N(CC(=O)Nc2ccccc2Br)S(=O)(=O)c2ccc(NC(C)=O)cc2)cc1 [compound 771064] | -24.8%

same assay, conditions: read-out: V503 reporter activity ([…]), […]; % increased luciferase activity over basal level; read-out: V503 reporter activity (2.5 uM)

SMILES | activation at […]
CCCC[S+]([O-])c1ncccc1[N+](=O)[O-] (centres unmarked) [SW208069, 2-(butylsulfinyl)-3-nitropyridine] | 19.5%
Nc1c(C(=O)O)sc2nc(-c3cccs3)cc(-c3ccccc3)c12 [SW206979, 3-Amino-4-phenyl-6-(thiophen-2-yl)thieno[2,3-b]pyridine-2-carboxylic acid] | 21.7%

same assay, conditions: read-out: V503 reporter activity ([…]), […]; % increased luciferase activity over basal level; read-out: V503 reporter activity (7.5 uM)

SMILES | activation at […]
CCCC[S+]([O-])c1ncccc1[N+](=O)[O-] (centres unmarked) [SW208069, 2-(butylsulfinyl)-3-nitropyridine] | 15.1%
Nc1c(C(=O)O)sc2nc(-c3cccs3)cc(-c3ccccc3)c12 [SW206979, 3-Amino-4-phenyl-6-(thiophen-2-yl)thieno[2,3-b]pyridine-2-carboxylic acid] | 42.9%
